Measurements reported in BigSolDB 2.1.

O=C(O)c1ccc(O)c(O)c1
solubility (mole fraction)
Settings | 293.15 K | 298.15 K | 303.15 K | 308.15 K | 313.15 K | 318.15 K
in ethanol | 0.0302 | 0.041 | 0.0495 | 0.0665 | 0.0847 | 0.108
in ethyl acetate | 0.00478 | 0.00671 | 0.00906 | 0.013 | 0.0179 | 0.0233
in methanol | 0.0337 | 0.0451 | 0.0654 | 0.093 | 0.126 | 0.167
in methyl acetate | 0.00563 | 0.00843 | 0.0115 | 0.0167 | 0.0225 | 0.03
